In patent US9630977B2, “Cephalosporin derivatives and pharmaceutical compositions thereof” (Legochem Biosciences, Inc., priority 2011, dated 2017):

Assays:
Assay type in all cases: cell-based
19 clinical isolates = experiment: In vitro antibacterial activity test, panel of 19 clinical isolates as a whole; details: effect of a siderophore group, Table 1
Experimental: To evaluate antibacterial activity of each of the compounds of Examples 1 to 68, in vitro antibacterial activity test was performed.
(§1) The in vitro antibacterial activity was evaluated by measuring MIC90 (ug/mL) of each of the compounds of Examples 1 to 68, which is defined as the lowest concentration of an antibiotic that will inhibit the visible growth of 90% of microorganisms after incubation as compared with a control group to which the antibiotic is not treated. MIC90 values were measured by the broth microdilution method developed by the Clinical and Laboratory Standards Institute (CLSI) (see CLSI M7-A5, Methods for Dilution Antimicrobial Susceptibility Test for Bacteria that Grow Aerobically-Fifth Edition (2000): CLSI, Villanova, Pa.).
In vitro antibacterial activity was measured with respect to the following 19 clinical isolates: M. catarrhalis; P. aeruginosa (5 strains); K. pneumoniae (6 strains); A. baumannii (3 strains); E. coli (2 strains); A. calcoaceticus; and E. cloacae.
(§2) Test compounds each (the cephalosporin derivative compounds prepared in Examples 1 to 68) were dissolved in DMSO at the concentration of 10,240 ug/mL, were diluted by two fold with DMSO, and then were diluted by twenty fold with sterilized distilled water. The final concentration in the antibacterial activity test was in the range of […] to 128 ug/mL, and the final concentration of DMSO used as an adjuvant was 2.5% (V/V).

[1] = tested on: A. calcoaceticus ATCC15473; experiment: In vitro antibacterial activity test (broth microdilution); details: Acinetobacter calcoaceticus; A. calcoaceticus ATCC15473; read-out: MIC90
How it was run: (§3)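 Clinical isolates; CLSI broth microdilution; MIC90 in ug/mL; final compound range 0.0626–128 ug/mL; DMSO 2.5% (V/V) final.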

P. aeruginosa 37 = experiment: as above; details: Pseudomonas aeruginosa, 37, P. aeruginosa 37; read-out: MIC90
How it was run: as §3

K. pneumoniae β9 = experiment: as above; details: Klebsiella pneumoniae, K. pneumoniae β9; read-out: MIC90
How it was run: as §3

P. aeruginosa 1912E = experiment: as above; details: Pseudomonas aeruginosa, 1912E, read-out: MIC90
How it was run: as §3

K. pneumoniae 2011E = experiment: as above; details: Klebsiella pneumoniae, 2011E, K. pneumoniae 2011E; read-out: MIC90
How it was run: as §3

P. aeruginosa 40 = experiment: as above; details: Pseudomonas aeruginosa, 40, P. aeruginosa 40; read-out: MIC90
How it was run: as §3

M. catarrhalis 2524 = experiment: as above; details: Moraxella catarrhalis; M. catarrhalis 2524; read-out: MIC90
How it was run: as §3

A. baumannii 49 = experiment: as above; details: Acinetobacter baumannii; A. baumannii 49; read-out: MIC90
How it was run: as §3

K. pneumoniae β11 = experiment: as above; details: Klebsiella pneumoniae; K. pneumoniae β11; read-out: MIC90
How it was run: as §3

A. baumannii 46 = experiment: as above; details: Acinetobacter baumannii; A. baumannii 46; read-out: MIC90
How it was run: as §3

E. cloacae β19 = experiment: as above; details: Enterobacter cloacae, read-out: MIC90
How it was run: as §3

K. pneumoniae β10 = experiment: as above; details: Klebsiella pneumoniae; K. pneumoniae β10; read-out: MIC90
How it was run: as §3

K. pneumoniae β13 = experiment: as above; details: Klebsiella pneumoniae, K. pneumoniae β13; read-out: MIC90
How it was run: as §3

E. coli AG100 = experiment: as above; details: Escherichia coli, AG100, E. coli AG100; read-out: MIC90
How it was run: as §3

E. coli β4 = experiment: as above; details: Escherichia coli, read-out: MIC90
How it was run: as §3

P. aeruginosa 43 = experiment: as above; details: Pseudomonas aeruginosa; P. aeruginosa 43; read-out: MIC90
How it was run: as §3

K. pneumoniae β14 = experiment: as above; details: Klebsiella pneumoniae, read-out: MIC90
How it was run: as §3

A. baumannii 52 = experiment: as above; details: Acinetobacter baumannii; A. baumannii 52; read-out: MIC90
How it was run: as §3

P. aeruginosa 6065Y = experiment: as above; details: Pseudomonas aeruginosa, read-out: MIC90
How it was run: as §3

[2] = tested on: A. baumannii (6 clinical isolates); experiment: Antibacterial activity on representative drug-resistance bacteria: number of clinical isolates per MIC value; details: A. baumanni (N = 6)
Experimental: as §1, §2

[3] = tested on: K. pneumoniae (38 clinical isolates); experiment: as above; details: K. pneumomiae (N = 38)
Experimental: as §1, §2

[4] = tested on: P. aeruginosa (16 clinical isolates); experiment: as above; details: P. aeruginosa (N = 16)
Experimental: as §1, §2

CC(C)(O/N=C(\C(=O)N[C@@H]1C(=O)N2C(C(=O)[O-])=C(/C=C/C[n+]3cnc(N)c(NCCNC(=O)c4cc(=O)c(O)cn4O)c3)CSC12)c1nc(N)sc1Cl)C(=O)O (stereo partly drawn) [Compound 26]
2: number of clinical isolates that showed the respective MIC value ([2]; MIC 8 ug/mL) | number of clinical isolates that showed the respective MIC value ([3]; MIC 0.5 ug/mL) | number of clinical isolates that showed the respective MIC value ([4]; MIC 0.25 ug/mL) | number of clinical isolates that showed the respective MIC value ([4]; MIC 2 ug/mL)
22: number of clinical isolates that showed the respective MIC value ([3]; MIC >16 ug/mL)
2 µg/mL: MIC90 (A. baumannii 46) | MIC90 (A. baumannii 52)
0.25 µg/mL: MIC90 (P. aeruginosa 1912E) | MIC90 (P. aeruginosa 43)
0.5 µg/mL: MIC90 [1] | MIC90 (K. pneumoniae 2011E) | MIC90 (K. pneumoniae β11) | MIC90 (P. aeruginosa 6065Y)
0.125 µg/mL: MIC90 (K. pneumoniae β9) | MIC90 (E. cloacae β19)
< 0.0625 µg/mL: MIC90 (P. aeruginosa 37) | MIC90 (P. aeruginosa 40) | MIC90 (M. catarrhalis 2524) | MIC90 (K. pneumoniae β10) | MIC90 (K. pneumoniae β13) | MIC90 (E. coli AG100) | MIC90 (E. coli β4)
3: number of clinical isolates that showed the respective MIC value ([2]; MIC >16 ug/mL) | number of clinical isolates that showed the respective MIC value ([3]; MIC 1 ug/mL) | number of clinical isolates that showed the respective MIC value ([4]; MIC 0.5 ug/mL) | number of clinical isolates that showed the respective MIC value ([4]; MIC 4 ug/mL) | number of clinical isolates that showed the respective MIC value ([4]; MIC >16 ug/mL)
4: number of clinical isolates that showed the respective MIC value ([3]; MIC 8 ug/mL) | number of clinical isolates that showed the respective MIC value ([3]; MIC 16 ug/mL)
4 µg/mL: MIC90 (K. pneumoniae β14)
16 µg/mL: MIC90 (A. baumannii 49)
1: number of clinical isolates that showed the respective MIC value ([2]; MIC 0.5 ug/mL) | number of clinical isolates that showed the respective MIC value ([3]; MIC 0.25 ug/mL) | number of clinical isolates that showed the respective MIC value ([3]; MIC 2 ug/mL) | number of clinical isolates that showed the respective MIC value ([3]; MIC <0.0625 ug/mL) | number of clinical isolates that showed the respective MIC value ([4]; MIC 0.0625 ug/mL) | number of clinical isolates that showed the respective MIC value ([4]; MIC 1 ug/mL) | number of clinical isolates that showed the respective MIC value ([4]; MIC 8 ug/mL)
significantly improved: antibacterial activity (in words) (19 clinical isolates)
